Assays:
Assay type in all cases: in vivo
[1] = system: two spotted spidermite (Tetranychus urticae); assay: Tetranychus urticae - spray test, OP-resistant; conditions: mortality, infested French beans sprayed
Protocol: (§1) Formula for the efficacy of the combination of two compounds • The expected efficacy of a given combination of two compounds is calculated as follows (see Colby, S. R., “Calculating Synergistic and antagonistic Responses of Herbicide Combinations”, Weeds 15, pp. 20-22, 1967): • If • X is the efficacy expressed in % mortality of the untreated control for test compound A at a concentration of m ppm respectively m g/ha, • Y is the efficacy expressed in % mortality of the untreated control for test compound B at a concentration of n ppm respectively n g/ha, • E is the efficacy expressed in % mortality of the untreated control using the mixture of A and B at m and n ppm respectively m and n g/ha, • then is
(§2) [formula] • If the observed insecticidal efficacy of the combination is higher than the one calculated as, “E”, then the combination of the two compounds is more than additive, i.e., there is a synergistic effect.
Tetranychus urticae—Spray Test, OP-Resistant
(§3) Solvent: 78.0 parts by weight acetone • 1.5 parts by weight dimethylformamide
(§4) Emulsifier: alkylaryl polyglycol ether
(§5) To produce a suitable preparation of active compound, 1 part by weight of active compound is mixed with the stated amount of solvents and is diluted with water, containing an emulsifier concentration of 1000 ppm, to the desired concentration. To produce a suitable preparation of a spore suspension the spores are diluted with emulsifier containing water to the desired concentration. Further test concentrations are prepared by dilution with emulsifier containing water.
French beans (Phaseolus vulgaris) which are heavily infested with all stages of the two spotted spidermite (Tetranychus urticae), are sprayed with a preparation of the active ingredient of the desired concentration.
After the specified period of time, mortality in % is determined. 100% means all spider mites have been killed and 0% means none of the spider mites have been killed. The mortality values determined thus are recalculated using the Colby-formula (see sheet 1).

[2] = system: mustard beetle larvae (Phaedon cochleariae); assay: Phaedon cochleariae - spray test; conditions: mortality, Chinese cabbage leaf disks sprayed
Protocol: as §1, §2
Phaedon cochleariae—Spray Test
Solvent: 78.0 parts by weight of acetone • • 1.5 parts by weight of dimethylformamide
Emulsifier: alkylaryl polyglycol ether […]
After the specified period of time, mortality in % is determined. […] The mortality values determined thus are recalculated using the Colby-formula (see sheet 1).

[3] = system: green peach aphid (Myzus persicae); assay: Myzus persicae - spray test; conditions: mortality, infested Chinese cabbage leaf disks sprayed; for Efficacy in % after 6 d: 0.4 g ai/ha
Protocol: as §1, §2
Myzus persicae—Spray Test
as §3, §4, §5
Chinese cabbage (Brassica pekinensis) leaf-disks infected with all instars of the green peach aphid (Myzus persicae) are sprayed with a preparation of the active ingredient of the desired concentration.
After the specified period of time, mortality in % is determined. 100% means all aphids have been killed; 0% means none of the aphids have been killed. The mortality values determined thus are recalculated using the Colby-formula (see sheet 1).

For `Cc1cc(F)c(-n2nc(C(F)(F)F)nc2N)cc1[S+]([O-])CC(F)(F)F` (stereo not shown) [AMSI 378, 1-{2-fluoro-4-methyl-5-[(2,2,2-trifluorethyl)sulfinyl]phenyl}-3-(trifluoromethyl)-1H-1,2,4-triazol-5-amine], the “Efficacy in % after 2 d” value ([1]; 4 g ai/ha) was 30% and the “Efficacy in % after 6 d” value ([1]; 4 g ai/ha) was 0%.

With `CNC(=O)c1cc(C#N)cc(C)c1NC(=O)c1cc(Cn2nnc(C(F)(F)F)n2)nn1-c1ncccc1Cl` [BCS-CL73507] the “Efficacy in % after 6 d” value ([2]; 0.08 g ai/ha) was 0% and the “Efficacy in % after 6 d” value [3] was 0%.

For `O=C(NCCc1ncc(C(F)(F)F)cc1Cl)c1ccccc1C(F)(F)F` [Fluopyram], the “Efficacy in % after 6 d” value ([2]; 100 g ai/ha) was 0% and the “Efficacy in % after 1 d” value ([3]; 1000 g ai/ha) was 0%.

For `O=C1C=C(N(Cc2ccc(Cl)nc2)CC(F)F)CO1` [Flupyradifurone], the “Efficacy in % after 1 d” value ([3]; 20 g ai/ha) was 0% and the “Efficacy in % after 6 d” value ([1]; 250 g ai/ha) was 0%.

In the case of `Cc1cc(C)c(C2=C(OC(=O)CC(C)(C)C)C3(CCCC3)OC2=O)c(C)c1` [Spiromesifen], the “Efficacy in % after 6 d” value ([1]; 0.5 g ai/ha) is reported as 0%.

In the case of `CCOC(=O)OC1=C(c2cc(C)ccc2C)C(=O)N[C@]12CC[C@@H](OC)CC2` [Spirotetramat], the “Efficacy in % after 6 d” value [3] is reported as 0%.

Source: US9867377B2, “Composition comprising a biological control agent and an insecticide” (Bayer CropScience AG, priority 2012, dated 2018)
